Active and inactive are the calls of the source. The calls are words filed in the database; no cut-off is given here.
Legend:
CAL-27 = assay: Antiproliferative activity against human CAL-27 cells incubated for 48 hrs by XTT assay; type: functional, cell-based; conditions: CAL-27, 48 h
[1] = Antiproliferative activity against human Cisplatin and radiotherapy resistant CAL27RR cells incubated for 48 hrs by XTT assay; type: functional, cell-based
A498 [2] = assay: Inhibition of CXCL8-induced cell migration in human A498 cells at 0.5 uM incubated for 24 hrs by crystal violet staining based analysis relative to control; type: functional
RCC4 = assay: Antiproliferative activity against human RCC4 cells incubated for 48 hrs by XTT assay; type: functional, cell-based; conditions: RCC4, 48 h
CAL-33 = assay: Antiproliferative activity against human CAL-33 cells incubated for 48 hrs by XTT assay; type: functional, cell-based; conditions: CAL-33, 48 h
[3] = Antiproliferative activity against human Cisplatin and radiotherapy resistant CAL33RR cells incubated for 48 hrs by XTT assay; type: functional, cell-based
A498 [4] = assay: Antiproliferative activity against human A498 cells incubated for 48 hrs by XTT assay; type: functional, cell-based; conditions: A498, 48 h
786-0 = assay: Antiproliferative activity against human 786-0 cells incubated for 48 hrs by XTT assay; type: functional, cell-based; conditions: 786-0, 48 h
[5] = Antiproliferative activity against human Sunitinib-resistant 786-R cells incubated for 48 hrs by XTT assay; type: functional, cell-based
A498 [6] = assay: Inhibition of cell invasion in human A498 cells cultured as 3D spheroids at 5 uM measured after 7 days by light microscopic imaging analysis relative to control; type: functional; conditions: A498, 168 h, time 7 day
A498 [7] = assay: Inhibition of cell invasion in human A498 cells cultured as 3D spheroids at 5 uM measured after 7 days by light microscopic imaging analysis; type: functional, cell-based; conditions: time 7.0 day

Structure (SMILES) | IC50 (CAL-27) | IC50 [1] | inhibition at 0.5 µM (A498 [2]) | IC50 (RCC4) | IC50 (CAL-33) | IC50 [3] | IC50 (A498 [4]) | IC50 (786-0) | IC50 [5] | inhibition at 5 µM (A498 [6]) | inhibition (A498 [7])
O=C(Nc1ccc(Cl)cc1)Nc1nc2ccc([N+](=O)[O-])cc2s1 | 5 µM | 4 µM | > 50% | 3 µM | 2.5 µM | 2 µM | 3 µM | 2 µM | 5 µM | > 75% | –
Cn1cc(-c2ccc3nc(NC(=O)Nc4cccc(Cl)c4)sc3c2)cn1 | 7 µM | > 10 µM | – | > 10 µM | > 10 µM | > 10 µM | > 10 µM | > 10 µM | > 10 µM | – | –
Cc1ccccc1NC(=O)Nc1nc2ccc([N+](=O)[O-])cc2s1 | 4 µM | 4 µM | – | 10 µM | 4 µM | 4 µM | 6 µM | 8 µM | 6 µM | – | –
O=C(Nc1nc2ccc([N+](=O)[O-])cc2s1)Nc1ccccc1Cl | 8 µM | 7 µM | – | 9 µM | 8 µM | 7 µM | 6 µM | 7 µM | 10 µM | – | –
Cc1ccc(-c2ccc3nc(NC(=O)Nc4cccc(Cl)c4)sc3c2)s1 | > 10 µM | > 10 µM | – | > 10 µM | > 10 µM | > 10 µM | – | > 10 µM | > 10 µM | – | –
Cc1noc(C)c1-c1ccc2nc(NC(=O)Nc3cccc(Cl)c3)sc2c1 | 1 µM | 2.5 µM | – | 5 µM | 3.5 µM | 3.5 µM | 3 µM | 2.5 µM | 4 µM | – | Active
Cc1ccc(NC(=O)Nc2nc3ccc([N+](=O)[O-])cc3o2)cc1 | 25 µM | 20 µM | – | 2 µM | 15 µM | 20 µM | 9 µM | 4 µM | 25 µM | – | –
O=C(Nc1cccc(Cl)c1)Nc1nc2ccc(-c3ccco3)cc2s1 | > 25 µM | > 25 µM | – | > 25 µM | > 25 µM | > 25 µM | > 25 µM | > 25 µM | > 25 µM | – | –
O=C(Nc1cccc(Cl)c1)Nc1nc2ccc(-c3ccsc3)cc2s1 | > 25 µM | > 25 µM | – | > 25 µM | > 25 µM | > 25 µM | > 25 µM | > 25 µM | > 25 µM | – | –
O=C(Nc1cccc(Cl)c1)Nc1nc2ccc(-c3cccc4ccccc34)cc2s1 | > 25 µM | > 25 µM | – | 8 µM | 12 µM | > 25 µM | 5 µM | 7 µM | 10 µM | – | inactive
Nc1ccc2nc(NC(=O)Nc3cccc(Cl)c3)sc2c1 | > 25 µM | 20 µM | – | 20 µM | > 25 µM | > 25 µM | 20 µM | 20 µM | > 25 µM | – | –
O=C(Nc1ccc(Br)cc1)Nc1nc2ccc([N+](=O)[O-])cc2s1 | 5 µM | 2.5 µM | > 50% | 7 µM | 2 µM | 5 µM | 2.5 µM | 5 µM | 5 µM | > 75% | –
O=C(Nc1cccc(Cl)c1)Nc1nc2ccc(-c3cccs3)cc2s1 | > 25 µM | > 25 µM | – | > 25 µM | > 25 µM | > 25 µM | > 25 µM | > 25 µM | > 25 µM | – | –
O=C(Nc1nc2ccc([N+](=O)[O-])cc2s1)Nc1ccccc1Br | > 25 µM | 25 µM | – | 25 µM | 8 µM | > 25 µM | 20 µM | 15 µM | 14 µM | – | –
O=C(Nc1cccc(Cl)c1)Nc1nc2cc([N+](=O)[O-])ccc2o1 | > 25 µM | > 25 µM | – | 25 µM | > 25 µM | > 25 µM | 25 µM | 25 µM | > 25 µM | – | –
O=C(Nc1ccccc1)Nc1nc2ccc([N+](=O)[O-])cc2s1 | 25 µM | 4 µM | – | 5 µM | 6 µM | 25 µM | 3 µM | 5 µM | 5 µM | – | –
